Source: patent US20210198277A1, “AMINE-SUBSTITUTED ARYL OR HETEROARYL COMPOUNDS” (Epizyme, Inc., priority 2016, published 2021)
Where a name gives a salt, the structure may show the parent alone.

The compounds below were run against T1, EHMT2 (Homo sapiens, UniProt Q96KQ7) (assay: MDA-MB-231 H3K9me2 in-cell Western assay (EHMT2 ICW)). Conditions: Table II; MDA-MB-231 H3K9me2 in-cell Western; read-out: EHMT2 ICW (IC50 μM).
T1 construct: host or cells: MDA-MB-231
T1 sequence (Q96KQ7 1-1210): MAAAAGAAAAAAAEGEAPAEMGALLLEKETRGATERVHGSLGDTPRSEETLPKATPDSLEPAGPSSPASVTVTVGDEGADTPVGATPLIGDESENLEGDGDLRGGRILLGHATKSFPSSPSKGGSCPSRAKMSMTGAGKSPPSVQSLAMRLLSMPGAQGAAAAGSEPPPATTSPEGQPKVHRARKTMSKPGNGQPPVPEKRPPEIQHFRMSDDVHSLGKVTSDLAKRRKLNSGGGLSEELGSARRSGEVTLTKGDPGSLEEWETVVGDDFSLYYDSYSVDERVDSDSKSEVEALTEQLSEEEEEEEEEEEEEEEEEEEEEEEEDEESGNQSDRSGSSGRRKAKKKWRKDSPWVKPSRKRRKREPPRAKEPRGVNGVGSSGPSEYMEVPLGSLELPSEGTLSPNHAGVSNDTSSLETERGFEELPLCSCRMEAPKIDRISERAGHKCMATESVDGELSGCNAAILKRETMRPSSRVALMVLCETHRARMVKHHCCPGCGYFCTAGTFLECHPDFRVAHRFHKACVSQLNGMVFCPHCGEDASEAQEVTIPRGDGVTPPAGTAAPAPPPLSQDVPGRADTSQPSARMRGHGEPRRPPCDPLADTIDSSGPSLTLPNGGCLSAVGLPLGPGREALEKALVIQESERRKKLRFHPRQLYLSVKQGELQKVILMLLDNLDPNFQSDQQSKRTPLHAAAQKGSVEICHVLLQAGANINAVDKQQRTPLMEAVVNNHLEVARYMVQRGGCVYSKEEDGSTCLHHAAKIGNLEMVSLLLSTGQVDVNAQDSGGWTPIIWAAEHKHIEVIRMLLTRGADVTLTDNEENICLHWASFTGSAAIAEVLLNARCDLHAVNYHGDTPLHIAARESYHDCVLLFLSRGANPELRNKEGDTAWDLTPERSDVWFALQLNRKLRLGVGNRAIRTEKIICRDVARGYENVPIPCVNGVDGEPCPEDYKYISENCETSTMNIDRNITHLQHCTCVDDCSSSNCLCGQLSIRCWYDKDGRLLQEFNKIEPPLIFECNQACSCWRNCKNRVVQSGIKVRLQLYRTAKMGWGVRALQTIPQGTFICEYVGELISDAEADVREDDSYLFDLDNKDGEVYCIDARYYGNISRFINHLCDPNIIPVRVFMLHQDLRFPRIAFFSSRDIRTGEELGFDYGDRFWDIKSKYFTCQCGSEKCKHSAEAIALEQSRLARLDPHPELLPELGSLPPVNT
Format: cell-based
Source text: RPMI/Glutamax medium, Penicillin-Streptomycin, Heat Inactivated Fetal Bovine Serum, and D-PBS were purchased from Life Technologies (Grand Island, N.Y., USA). Odyssey blocking buffer, 800CW goat anti-mouse IgG (H+L) antibody, and Licor Odyssey Infrared Scanner were purchased from Licor Biosciences, Lincoln, Nebr., USA. […] 16% Paraformaldehyde was purchased from Electron Microscopy Sciences, Hatfield, Pa., USA).MDA-MB-231 cells were maintained in complete growth medium (RPMI supplemented with 10% v/v heat inactivated fetal bovine serum) and cultured at 37° C. under 5% CO2. UNC0638 was purchased from Sigma-Aldrich (St. Louis, Mo., USA).
Compound (100 nL) was added directly to 384-well cell plate. MDA-MB-231 cells (ATCC) were seeded in assay medium (RPMI/Glutamax supplemented with 10% v/v heat inactivated fetal bovine serum and 1% Penicillin/Streptomycin, Life Technologies) at a concentration of 3,000 cells per well to a Poly-D-Lysine coated 384-well cell culture plate with 50 μL per well. […] Plates were incubated at room temperature for 30 minutes and then incubated at 37° C., 5% CO2 for additional 48 hours. After the incubation, 50 μL per well of 8% paraformaldehyde (Electron Microscopy Sciences) in PBS was added to the plates and incubated at room temperature for 20 minutes. […] Next, 60 μL per well of Odyssey blocking buffer (Licor Biosciences) was added to each plate and incubated for 1 hour at room temperature. Blocking buffer was removed and 20 μL of monoclonal primary antibody α-H3K9me2 (Abcam) diluted 1:800 in Odyssey buffer with 0.1% Tween 20 (v/v) were added and plates were incubated overnight (16 hours) at 4° C. Plates were washed 5 times with 100 μL per well of wash buffer. Next 20 μL per well of secondary antibody was added (1:500 800CW donkey anti-mouse IgG (H+L) antibody (Licor Biosciences), 1:1000 DRAQ5 (Cell Signaling Technology) in Odyssey buffer with 0.1% Tween 20 (v/v)) and incubated for 1 hour at room temperature. The plates were washed 5 times with 100 μL per well wash buffer then 2 times with 100 μL per well of water. Plates were allowed to dry at room temperature then imaged on a Licor Odyssey Infrared Scanner (Licor Biosciences) which measured integrated intensity at 700 nm and 800 nm wavelengths. Both 700 and 800 channels were scanned.
First, the ratio for each well was determined by:
The average of the ratio values for each well was calculated and used to determine the percent inhibition for each test well in the plate. Control compound was serially diluted three-fold in DMSO for a total of 10 test concentrations beginning at 1 μM. Percent inhibition was calculated as: […]
IC50 curves were generated using triplicate wells per concentration of compound. […] IC50 values were calculated using a non-linear regression (variable slope-four parameter fit model) with by the following formula: […]

Row | Compound | IC50
1 | COc1ccc(Nc2nccc(N3CCc4nc[nH]c(=O)c4C3)n2)cc1OCCCN1CCCC1 [Compound 134] | > 10 µM
2 | COc1ccc(Nc2nccc(N(C)Cc3cccnc3)n2)cc1OCCCN1CCCC1 [Compound 135] | > 10 µM
3 | COc1ccc(Nc2nccc(N(C)Cc3ccccn3)n2)cc1OCCCN1CCCC1 [Compound 136] | > 10 µM
4 | COc1ccc(Nc2nccc(NC3COC3)n2)cc1OCCCN1CCCC1 [Compound 137] | > 10 µM
5 | COc1ccc(Nc2nccc(N3CCCN(C(C)=O)CC3)n2)cc1OCCCN1CCCC1 [Compound 138] | > 10 µM
6 | COc1ccc(Nc2nccc(N3CCN(C(C)=O)CC3)n2)cc1OCCCN1CCCC1 [Compound 139] | > 10 µM
7 | COc1ccc(Nc2nccc(N(C)CCCO)n2)cc1OCCCN1CCCC1 [Compound 140] | > 10 µM
8 | COc1ccc(Nc2nccc(N3CCC(C)(O)CC3)n2)cc1OCCCN1CCCC1 [Compound 141] | > 10 µM
9 | COc1ccc(Nc2nccc(N(C)C3CCOCC3)n2)cc1OCCCN1CCCC1 [Compound 142] | > 10 µM
10 | COCCCN(C)c1ccnc(Nc2ccc(OC)c(OCCCN3CCCC3)c2)n1 [Compound 143] | > 10 µM
11 | COc1ccc(Nc2nccc(CNC(C)=O)n2)cc1OCCCN1CCCC1 [Compound 144] | > 10 µM
12 | CC(=O)N1CCC(CNc2ccnc(Nc3ccc(C)c(OCCCN4CCCC4)c3)n2)CC1 [Compound 145] | > 10 µM
13 | COc1ccc(Nc2nccc(N3CCC(C(C)(C)O)CC3)n2)cc1OCCCN1CCCC1 [Compound 147] | > 10 µM
14 | COc1ccc(Nc2nccc(N3CCC(O)CC3)n2)cc1OCCCN1CCCC1 [Compound 148] | > 10 µM
15 | COc1ccc(Nc2nccc(N3CCC(OC)CC3)n2)cc1OCCCN1CCCC1 [Compound 149] | > 10 µM
16 | COc1ccc(Nc2nccc(N(C)CCO)n2)cc1OCCCN1CCCC1 [Compound 150] | > 10 µM
17 | COc1ccc(Nc2nccc(N3CCCOCC3)n2)cc1OCCCN1CCCC1 [Compound 151] | > 10 µM
18 | COc1ccc(Nc2nccc(NC3CCS(=O)(=O)CC3)n2)cc1OCCCN1CCCC1 [Compound 152] | > 10 µM
19 | COc1ccc(Nc2nccc(N3CCC(C(N)=O)CC3)n2)cc1OCCCN1CCCC1 [Compound 153] | > 10 µM
20 | COc1ccc(Nc2nccc(N3CCNc4ccccc4C3)n2)cc1OCCCN1CCCC1 [Compound 154] | > 10 µM
21 | COc1ccc(Nc2nccc(N3CCc4cn[nH]c4C3)n2)cc1OCCCN1CCCC1 [Compound 155] | > 10 µM
22 | COc1ccc(Nc2nccc(N3CCc4ncncc4C3)n2)cc1OCCCN1CCCC1 [Compound 156] | > 10 µM
23 | COc1ccc(Nc2ccnc(OCC3CCN(C(C)=O)CC3)c2)cc1OCCCN1CCCC1 [Compound 157] | > 10 µM

Other lines, results leading:

Row | IC50 | Compound
24 | 1 to 10 µM | COc1ccc(Nc2nccc(NC(C)(C)C)n2)cc1OCCCN1CCCC1 [Compound 6, N^4-(tert-butyl)-N^2-(4-methoxy-3-(3-(pyrrolidin-1-yl)propoxy)phenyl)pyrimidine-2,4-diamine]
25 | 1 to 10 µM | COc1ccc(Nc2ccnc(NCC3CCNCC3)n2)cc1OCCCN1CCCC1 [Compound 7, 4-N-[4-methoxy-3-[3-(pyrrolidin-1-yl)propoxy]phenyl]-2-N-(piperidin-4-ylmethyl)pyrimidine-2,4-diamine hydrochloride]
26 | 1 to 10 µM | CC(=O)N1CCC(CNc2ccnc(Nc3ccc(Cl)c(OCCCN4CCCC4)c3)n2)CC1 [Compound 8, 1-(4-(((2-((4-chloro-3-(3-(pyrrolidin-1-yl)propoxy)phenyl)amino)pyrimidin-4-yl)amino)methyl)piperidin-1-yl)ethan-1-one]
27 | > 10 µM | CNC(=O)c1cnc(Nc2ccc(OC)c(OCCCN3CCCC3)c2)nc1 [Compound 9, 2-((4-methoxy-3-(3-(pyrrolidin-1-yl)propoxy)phenyl)amino)-N-methylpyrimidine-5-carboxamide]
28 | > 10 µM | COc1ccc(Nc2cc(NCC3CCNCC3)ccn2)cc1OCCCN1CCCC1 [Compound 10, N^2-(4-methoxy-3-(3-(pyrrolidin-1-yl)propoxy)phenyl)-N^4-(piperidin-4-ylmethyl)pyridine-2,4-diamine]
29 | > 10 µM | COc1cnc(Nc2ccnc(CNC3CCOCC3)c2)cc1OCCCN1CCCC1 [Compound 12, 5-methoxy-4-(3-(pyrrolidin-1-yl)propoxy)-N-(2-(((tetrahydro-2H-pyran-4-yl)amino)methyl)pyridin-4-yl)pyridin-2-amine]
30 | > 10 µM | COc1ccc(Nc2ccnc(N(C)CC3CCN(C(C)=O)CC3)c2)cc1OCCCN1CCCC1 [Compound 13, 1-(4-(((4-((4-methoxy-3-(3-(pyrrolidin-1-yl)propoxy)phenyl)amino)pyridin-2-yl)(methyl)amino)methyl)piperidin-1-yl)ethan-1-one]
31 | > 10 µM | COc1ccc(Nc2nccc(OCC3CCN(C(C)=O)CC3)n2)cc1OCCCN1CCCC1 [Compound 14, 1-(4-(((2-((4-methoxy-3-(3-(pyrrolidin-1-yl)propoxy)phenyl)amino)pyrimidin-4-yl)oxy)methyl)piperidin-1-yl)ethan-1-one]
32 | > 10 µM | COc1ccc(Nc2nccc(NCC3CCNCC3)n2)cc1OCC(O)CN1CCCC1 (stereo not drawn) [Compound 15, 1-(2-methoxy-5-((4-((piperidin-4-ylmethyl)amino)pyrimidin-2-yl)amino)phenoxy)-3-(pyrrolidin-1-yl)propan-2-ol]
33 | > 10 µM | COc1ccc(Nc2nc(NCC3CCNCC3)cc(N3CCCC3)n2)cc1OCCCN1CCCC1 [Compound 103]
34 | > 10 µM | COc1ccc(Nc2cc(CNC3CCNCC3)n(C)n2)cc1OCCCN1CCCC1 [Compound 126]
35 | > 10 µM | COc1ccc(Nc2cc(CNC3CCOCC3)n(C)n2)cc1OCCCN1CCCC1 [Compound 127]
36 | > 10 µM | COc1ccc(Nc2nccc(N3CCc4[nH]ncc4C3)n2)cc1OCCCN1CCCC1 [Compound 128]
37 | > 10 µM | COc1ccc(Nc2nccc(-c3c(C)n[nH]c3C)n2)cc1OCCCN1CCCC1 [Compound 129]
38 | > 10 µM | COc1ccc(Nc2nccc(-c3c(C)noc3C)n2)cc1OCCCN1CCCC1 [Compound 130]
39 | > 10 µM | COc1ccc(Nc2nccc(-c3c[nH]nc3C)n2)cc1OCCCN1CCCC1 [Compound 131]
40 | > 10 µM | COc1ccc(Nc2nccc(N3CCN(C)C(=O)C3)n2)cc1OCCCN1CCCC1 [Compound 132]
41 | > 10 µM | COc1ccc(Nc2nccc(N3CCCNC(=O)C3)n2)cc1OCCCN1CCCC1 [Compound 133]
42 | 1 to 10 µM | COc1ccc(Nc2nccc(N(C)CC3CCOCC3)n2)cc1OCCCN1CCCC1 [Compound 146]
